{"source": "ChEMBL document CHEMBL4507303", "about": "“Data for DCP probe TP-004” (2021)", "key": {"[1]": {"molecular_target": "Sodium-dependent dopamine transporter (Homo sapiens, UniProt Q01959)", "sequence (Q01959 whole entry)": "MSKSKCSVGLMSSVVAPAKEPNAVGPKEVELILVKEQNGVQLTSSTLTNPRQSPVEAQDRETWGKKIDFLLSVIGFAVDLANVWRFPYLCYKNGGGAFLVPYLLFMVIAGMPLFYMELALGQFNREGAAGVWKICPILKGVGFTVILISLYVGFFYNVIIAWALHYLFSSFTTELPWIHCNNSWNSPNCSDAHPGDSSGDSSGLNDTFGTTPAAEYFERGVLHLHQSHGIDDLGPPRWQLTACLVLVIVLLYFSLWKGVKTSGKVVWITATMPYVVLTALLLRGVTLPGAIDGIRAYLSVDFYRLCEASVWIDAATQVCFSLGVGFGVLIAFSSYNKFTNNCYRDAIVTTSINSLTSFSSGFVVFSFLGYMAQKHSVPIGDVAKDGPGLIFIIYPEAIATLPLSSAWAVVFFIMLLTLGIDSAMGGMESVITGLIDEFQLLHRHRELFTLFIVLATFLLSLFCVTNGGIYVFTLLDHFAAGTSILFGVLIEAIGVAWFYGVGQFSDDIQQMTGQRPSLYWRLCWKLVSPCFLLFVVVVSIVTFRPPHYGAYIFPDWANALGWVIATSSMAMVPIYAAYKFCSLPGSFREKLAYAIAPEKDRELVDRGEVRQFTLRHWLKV", "assay": "GPCRScan assay: inhibition of DAT", "design": "radioligand conc. used [nm] 3.6 – 16.0, parental cells stable HEK"}, "[2]": {"molecular_target": "Tyrosine-protein kinase ABL1 (Homo sapiens) (UniProt P00519)", "conditions": "Compound concentration 1000.0 nM"}, "[3]": {"molecular_target": "Activin receptor type-2A (Homo sapiens) (UniProt P27037)", "conditions": "Compound concentration 1000.0 nM"}, "[4]": {"molecular_target": "Atypical kinase COQ8A, mitochondrial (Homo sapiens) (UniProt Q8NI60)", "conditions": "Compound concentration 1000.0 nM"}, "[5]": {"molecular_target": "ALK tyrosine kinase receptor (Homo sapiens) (UniProt Q9UM73)", "conditions": "Compound concentration 1000.0 nM"}, "[6]": {"molecular_target": "Tyrosine-protein kinase Blk (Homo sapiens) (UniProt P51451)", "conditions": "Compound concentration 1000.0 nM"}, "[7]": {"molecular_target": "Calcium/calmodulin-dependent protein kinase type 1G (Homo sapiens) (UniProt Q96NX5)", "conditions": "Compound concentration 1000.0 nM"}, "[8]": {"molecular_target": "Cyclin-dependent kinase 7 (Homo sapiens) (UniProt P50613)", "conditions": "Compound concentration 1000.0 nM"}, "[9]": {"molecular_target": "Casein kinase I isoform alpha-like (Homo sapiens) (UniProt Q8N752)", "conditions": "Compound concentration 1000.0 nM"}, "[10]": {"system": "Epidermal growth factor receptor (Homo sapiens), P00533 [G719C]", "conditions": "Compound concentration 1000.0 nM"}, "[11]": {"molecular_target": "Ephrin type-A receptor 2 (Homo sapiens) (UniProt P29317)", "conditions": "Compound concentration 1000.0 nM"}, "[12]": {"molecular_target": "Ephrin type-A receptor 3 (Homo sapiens) (UniProt P29320)", "sequence (P29320 whole entry)": "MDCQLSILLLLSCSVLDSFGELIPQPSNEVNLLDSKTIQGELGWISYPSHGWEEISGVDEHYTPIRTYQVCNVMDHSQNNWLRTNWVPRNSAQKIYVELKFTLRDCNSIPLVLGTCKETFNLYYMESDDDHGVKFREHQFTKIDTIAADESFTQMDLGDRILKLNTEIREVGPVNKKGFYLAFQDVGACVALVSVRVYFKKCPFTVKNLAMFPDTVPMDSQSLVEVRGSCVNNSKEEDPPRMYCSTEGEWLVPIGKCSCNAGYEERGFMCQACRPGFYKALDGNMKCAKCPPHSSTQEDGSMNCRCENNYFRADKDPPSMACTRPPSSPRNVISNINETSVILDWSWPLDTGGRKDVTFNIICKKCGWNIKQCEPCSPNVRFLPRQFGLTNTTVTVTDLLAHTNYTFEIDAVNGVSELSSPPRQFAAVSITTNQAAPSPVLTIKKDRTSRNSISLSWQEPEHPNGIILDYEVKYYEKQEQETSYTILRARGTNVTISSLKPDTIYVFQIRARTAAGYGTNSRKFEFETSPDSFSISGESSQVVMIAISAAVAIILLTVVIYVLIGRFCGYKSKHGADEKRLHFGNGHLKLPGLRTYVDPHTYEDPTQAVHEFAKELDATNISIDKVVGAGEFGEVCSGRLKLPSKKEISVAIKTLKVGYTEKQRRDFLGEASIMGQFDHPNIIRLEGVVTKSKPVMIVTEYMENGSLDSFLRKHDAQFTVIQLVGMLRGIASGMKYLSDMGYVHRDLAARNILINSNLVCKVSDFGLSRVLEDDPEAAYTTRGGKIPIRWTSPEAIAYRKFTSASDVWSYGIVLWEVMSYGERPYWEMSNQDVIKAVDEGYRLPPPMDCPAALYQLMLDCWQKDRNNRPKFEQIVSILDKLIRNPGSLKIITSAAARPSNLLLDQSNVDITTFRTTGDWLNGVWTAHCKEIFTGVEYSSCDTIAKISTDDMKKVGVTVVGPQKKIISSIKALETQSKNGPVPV", "conditions": "Compound concentration 1000.0 nM"}, "[13]": {"molecular_target": "Ephrin type-A receptor 5 (Homo sapiens) (UniProt P54756)", "conditions": "Compound concentration 1000.0 nM"}, "[14]": {"molecular_target": "Mitogen-activated protein kinase 6 (Homo sapiens) (UniProt Q16659)", "sequence (Q16659 whole entry)": "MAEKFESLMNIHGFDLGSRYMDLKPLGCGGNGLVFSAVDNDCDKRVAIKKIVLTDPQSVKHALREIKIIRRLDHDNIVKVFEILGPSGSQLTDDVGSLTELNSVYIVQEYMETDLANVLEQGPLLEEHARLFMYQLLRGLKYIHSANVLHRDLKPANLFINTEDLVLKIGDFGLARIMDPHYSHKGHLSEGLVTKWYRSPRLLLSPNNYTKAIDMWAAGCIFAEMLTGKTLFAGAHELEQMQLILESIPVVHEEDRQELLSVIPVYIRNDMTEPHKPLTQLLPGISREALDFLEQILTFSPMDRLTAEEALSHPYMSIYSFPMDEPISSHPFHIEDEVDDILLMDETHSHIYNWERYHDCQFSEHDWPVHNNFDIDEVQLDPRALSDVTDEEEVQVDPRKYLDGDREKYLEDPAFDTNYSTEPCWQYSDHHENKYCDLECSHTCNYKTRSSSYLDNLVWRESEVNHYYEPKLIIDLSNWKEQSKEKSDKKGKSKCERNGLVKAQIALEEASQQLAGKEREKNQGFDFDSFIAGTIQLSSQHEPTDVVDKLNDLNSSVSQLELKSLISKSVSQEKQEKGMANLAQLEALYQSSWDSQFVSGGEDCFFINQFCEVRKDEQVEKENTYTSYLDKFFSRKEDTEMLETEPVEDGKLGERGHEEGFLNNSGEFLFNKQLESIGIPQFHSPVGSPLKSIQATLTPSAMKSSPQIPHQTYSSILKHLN", "conditions": "Compound concentration 1000.0 nM"}, "[15]": {"molecular_target": "Serine/threonine-protein kinase/endoribonuclease IRE1 (Homo sapiens) (UniProt O75460)", "conditions": "Compound concentration 1000.0 nM"}, "[16]": {"system": "Receptor-type tyrosine-protein kinase FLT3 (Homo sapiens), P36888 [UNDEFINED MUTATION]", "conditions": "Compound concentration 1000.0 nM"}, "[17]": {"system": "Receptor-type tyrosine-protein kinase FLT3 (Homo sapiens), P36888 [K663Q]", "conditions": "Compound concentration 1000.0 nM"}, "[18]": {"molecular_target": "G protein-coupled receptor kinase 4 (Homo sapiens) (UniProt P32298)", "conditions": "Compound concentration 1000.0 nM"}, "[19]": {"molecular_target": "Rhodopsin kinase GRK7 (Homo sapiens) (UniProt Q8WTQ7)", "conditions": "Compound concentration 1000.0 nM"}, "[20]": {"molecular_target": "Serine/threonine-protein kinase haspin (Homo sapiens) (UniProt Q8TF76)", "conditions": "Compound concentration 1000.0 nM"}, "[21]": {"molecular_target": "Tyrosine-protein kinase JAK2 (Homo sapiens) (UniProt O60674)", "conditions": "Compound concentration 1000.0 nM"}, "[22]": {"system": "Mast/stem cell growth factor receptor Kit (Homo sapiens), P10721 [V559D]", "conditions": "Compound concentration 1000.0 nM"}, "[23]": {"molecular_target": "Dual specificity mitogen-activated protein kinase kinase 6 (Homo sapiens) (UniProt P52564)", "conditions": "Compound concentration 1000.0 nM"}, "[24]": {"molecular_target": "Tyrosine-protein kinase Mer (Homo sapiens) (UniProt Q12866)", "conditions": "Compound concentration 1000.0 nM"}, "[25]": {"system": "Hepatocyte growth factor receptor (Homo sapiens), P08581 [M1250T]", "conditions": "Compound concentration 1000.0 nM"}, "[26]": {"molecular_target": "Serine/threonine-protein kinase 26 (Homo sapiens) (UniProt Q9P289)", "conditions": "Compound concentration 1000.0 nM"}, "[27]": {"molecular_target": "Serine/threonine-protein kinase 38-like (Homo sapiens) (UniProt Q9Y2H1)", "sequence (Q9Y2H1 2-464 limits assumed)": "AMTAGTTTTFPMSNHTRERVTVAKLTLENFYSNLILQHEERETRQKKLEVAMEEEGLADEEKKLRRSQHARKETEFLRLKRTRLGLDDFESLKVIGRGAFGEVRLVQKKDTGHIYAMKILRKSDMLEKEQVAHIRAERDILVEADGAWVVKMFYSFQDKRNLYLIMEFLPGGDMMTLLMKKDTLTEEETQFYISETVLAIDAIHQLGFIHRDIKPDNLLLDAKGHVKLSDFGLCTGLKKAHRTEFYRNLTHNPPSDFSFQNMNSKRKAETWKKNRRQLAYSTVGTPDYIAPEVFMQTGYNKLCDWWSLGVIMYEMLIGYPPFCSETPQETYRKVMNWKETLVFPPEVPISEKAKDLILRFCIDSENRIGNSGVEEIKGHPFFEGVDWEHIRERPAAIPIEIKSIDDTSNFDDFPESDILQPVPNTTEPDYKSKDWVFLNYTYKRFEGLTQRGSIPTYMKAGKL", "conditions": "Compound concentration 1000.0 nM"}, "[28]": {"molecular_target": "Serine/threonine-protein kinase Nek2 (Homo sapiens) (UniProt P51955)", "sequence (P51955 whole entry)": "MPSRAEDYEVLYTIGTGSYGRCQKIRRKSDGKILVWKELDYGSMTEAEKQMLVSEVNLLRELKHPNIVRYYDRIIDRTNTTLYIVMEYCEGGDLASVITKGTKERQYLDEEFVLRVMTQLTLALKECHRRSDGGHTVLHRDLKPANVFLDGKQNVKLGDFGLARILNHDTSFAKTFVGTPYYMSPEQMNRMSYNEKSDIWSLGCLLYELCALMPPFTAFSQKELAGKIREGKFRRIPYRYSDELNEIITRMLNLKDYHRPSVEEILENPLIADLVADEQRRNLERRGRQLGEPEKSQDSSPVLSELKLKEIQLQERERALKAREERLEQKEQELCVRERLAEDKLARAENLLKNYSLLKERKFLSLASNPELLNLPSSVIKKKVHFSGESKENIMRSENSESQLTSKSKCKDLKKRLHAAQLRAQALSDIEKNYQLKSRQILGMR", "conditions": "Compound concentration 1000.0 nM"}, "[29]": {"molecular_target": "Cyclin-dependent kinase 18 (Homo sapiens) (UniProt Q07002)", "sequence (Q07002 whole entry)": "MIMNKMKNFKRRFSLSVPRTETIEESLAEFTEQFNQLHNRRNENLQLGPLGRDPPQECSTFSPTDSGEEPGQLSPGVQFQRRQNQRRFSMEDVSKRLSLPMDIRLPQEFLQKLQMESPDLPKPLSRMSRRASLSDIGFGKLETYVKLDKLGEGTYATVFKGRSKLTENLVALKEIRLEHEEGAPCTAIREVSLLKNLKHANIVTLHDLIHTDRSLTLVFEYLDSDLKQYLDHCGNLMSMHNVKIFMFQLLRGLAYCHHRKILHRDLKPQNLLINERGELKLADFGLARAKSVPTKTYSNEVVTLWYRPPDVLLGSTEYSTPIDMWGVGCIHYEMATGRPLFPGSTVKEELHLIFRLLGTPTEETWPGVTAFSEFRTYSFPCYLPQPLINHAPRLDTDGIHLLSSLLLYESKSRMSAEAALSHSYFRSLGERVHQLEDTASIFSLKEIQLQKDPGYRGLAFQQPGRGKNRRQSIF", "conditions": "Compound concentration 1000.0 nM"}, "[30]": {"molecular_target": "Phosphatidylinositol 4,5-bisphosphate 3-kinase catalytic subunit delta isoform (Homo sapiens) (UniProt O00329)", "conditions": "Compound concentration 1000.0 nM"}, "[31]": {"molecular_target": "Phosphatidylinositol 4-phosphate 5-kinase type-1 alpha (Homo sapiens) (UniProt Q99755)", "conditions": "Compound concentration 1000.0 nM"}, "[32]": {"molecular_target": "Serine/threonine-protein kinase D2 (Homo sapiens) (UniProt Q9BZL6)", "conditions": "Compound concentration 1000.0 nM"}, "[33]": {"molecular_target": "Serine/threonine-protein kinase D3 (Homo sapiens) (UniProt O94806)", "conditions": "Compound concentration 1000.0 nM"}, "[34]": {"molecular_target": "Serine/threonine-protein kinase PRP4 homolog (Homo sapiens) (UniProt Q13523)", "conditions": "Compound concentration 1000.0 nM"}, "[35]": {"system": "Proto-oncogene tyrosine-protein kinase receptor Ret (Homo sapiens), P07949 [V804L]", "conditions": "Compound concentration 1000.0 nM"}, "[36]": {"molecular_target": "Ribosomal protein S6 kinase alpha-1 (Homo sapiens) (UniProt Q15418)", "conditions": "Compound concentration 1000.0 nM"}, "[37]": {"molecular_target": "Ribosomal protein S6 kinase alpha-6 (Homo sapiens) (UniProt Q9UK32)", "conditions": "Compound concentration 1000.0 nM"}, "[38]": {"molecular_target": "Serine/threonine-protein kinase SBK1 (Homo sapiens) (UniProt Q52WX2)", "sequence (Q52WX2 whole entry)": "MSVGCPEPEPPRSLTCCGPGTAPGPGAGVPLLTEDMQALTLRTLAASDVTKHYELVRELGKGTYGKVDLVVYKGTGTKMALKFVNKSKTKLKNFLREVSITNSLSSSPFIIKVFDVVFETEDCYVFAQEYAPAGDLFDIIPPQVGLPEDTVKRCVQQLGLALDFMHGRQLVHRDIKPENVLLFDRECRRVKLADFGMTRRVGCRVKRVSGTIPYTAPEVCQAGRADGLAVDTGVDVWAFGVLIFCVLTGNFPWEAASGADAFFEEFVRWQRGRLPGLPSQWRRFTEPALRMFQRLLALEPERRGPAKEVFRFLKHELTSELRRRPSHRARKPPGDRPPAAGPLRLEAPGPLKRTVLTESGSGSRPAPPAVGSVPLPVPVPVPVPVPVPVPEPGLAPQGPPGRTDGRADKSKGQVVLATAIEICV", "conditions": "Compound concentration 1000.0 nM"}, "[39]": {"molecular_target": "Serine/threonine-protein kinase Sgk1 (Homo sapiens) (UniProt O00141)", "sequence (O00141 whole entry)": "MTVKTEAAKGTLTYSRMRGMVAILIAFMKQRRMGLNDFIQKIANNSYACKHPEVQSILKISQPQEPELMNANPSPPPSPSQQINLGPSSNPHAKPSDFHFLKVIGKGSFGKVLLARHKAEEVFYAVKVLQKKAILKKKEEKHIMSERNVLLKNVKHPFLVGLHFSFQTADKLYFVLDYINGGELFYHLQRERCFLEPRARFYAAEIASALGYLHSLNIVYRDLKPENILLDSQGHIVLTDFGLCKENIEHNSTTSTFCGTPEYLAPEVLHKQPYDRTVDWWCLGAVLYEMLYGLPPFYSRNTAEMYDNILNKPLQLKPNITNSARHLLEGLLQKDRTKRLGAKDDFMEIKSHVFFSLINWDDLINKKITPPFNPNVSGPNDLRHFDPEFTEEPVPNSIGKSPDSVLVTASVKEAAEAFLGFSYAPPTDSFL", "conditions": "Compound concentration 1000.0 nM"}, "[40]": {"molecular_target": "Uncharacterized serine/threonine-protein kinase SBK3 (Homo sapiens) (UniProt P0C264)", "sequence (P0C264 whole entry)": "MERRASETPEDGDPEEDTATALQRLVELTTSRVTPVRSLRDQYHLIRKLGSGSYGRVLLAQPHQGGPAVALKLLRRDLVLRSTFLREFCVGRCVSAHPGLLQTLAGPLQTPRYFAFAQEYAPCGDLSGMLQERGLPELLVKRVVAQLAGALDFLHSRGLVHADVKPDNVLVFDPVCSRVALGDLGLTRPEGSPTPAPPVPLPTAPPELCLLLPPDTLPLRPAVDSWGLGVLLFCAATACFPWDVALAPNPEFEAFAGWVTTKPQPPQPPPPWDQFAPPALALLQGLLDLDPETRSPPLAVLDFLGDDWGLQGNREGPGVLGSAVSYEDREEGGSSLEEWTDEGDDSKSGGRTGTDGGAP", "conditions": "Compound concentration 1000.0 nM"}, "[41]": {"molecular_target": "Serine/threonine-protein kinase ULK2 (Homo sapiens) (UniProt Q8IYT8)", "conditions": "Compound concentration 1000.0 nM"}, "[42]": {"molecular_target": "Serine/threonine-protein kinase WNK2 (Homo sapiens) (UniProt Q9Y3S1)", "conditions": "Compound concentration 1000.0 nM"}, "[43]": {"molecular_target": "Histamine H4 receptor (Homo sapiens) (UniProt Q9H3N8)", "conditions": "Compound concentration 10.0 uM"}, "[44]": {"molecular_target": "Muscarinic acetylcholine receptor M2 (Homo sapiens) (UniProt P08172)", "conditions": "Compound concentration 10.0 uM"}, "Rattus norvegicus": {"species_on_record": "Rattus norvegicus", "conditions": "Compound concentration 10.0 uM"}}}
{"compound": "Cc1nc(N2CC[C@@H](O)C2)ncc1-c1cc(C(F)(F)F)cc2[nH]ncc12", "note": "[TP-004]", "values": [{"measurement": "Ki", "setting": "[1]; read-out: Ki", "result": 1680, "unit": "nM"}, {"measurement": "Ki", "setting": "[1]; read-out: pKi (converted)", "result": 1580, "unit": "nM"}, {"measurement": "residual activity", "setting": "[2]", "result": 83, "unit": "%"}, {"measurement": "residual activity", "setting": "[3]", "result": 73, "unit": "%"}, {"measurement": "residual activity", "setting": "[4]", "result": 100, "unit": "%"}, {"measurement": "residual activity", "setting": "[5]", "result": 81, "unit": "%"}, {"measurement": "residual activity", "setting": "[6]", "result": 100, "unit": "%"}, {"measurement": "residual activity", "setting": "[7]", "result": 100, "unit": "%"}, {"measurement": "residual activity", "setting": "[8]", "result": 68, "unit": "%"}, {"measurement": "residual activity", "setting": "[9]", "result": 93, "unit": "%"}, {"measurement": "residual activity", "setting": "[10]", "result": 100, "unit": "%"}, {"measurement": "residual activity", "setting": "[11]", "result": 100, "unit": "%"}, {"measurement": "residual activity", "setting": "[12]", "result": 94, "unit": "%"}, {"measurement": "residual activity", "setting": "[13]", "result": 100, "unit": "%"}, {"measurement": "residual activity", "setting": "[14]", "result": 83, "unit": "%"}, {"measurement": "residual activity", "setting": "[15]", "result": 86, "unit": "%"}, {"measurement": "residual activity", "setting": "[16]", "result": 54, "unit": "%"}, {"measurement": "residual activity", "setting": "[17]", "result": 89, "unit": "%"}, {"measurement": "residual activity", "setting": "[18]", "result": 86, "unit": "%"}, {"measurement": "residual activity", "setting": "[19]", "result": 70, "unit": "%"}, {"measurement": "residual activity", "setting": "[20]", "result": 66, "unit": "%"}, {"measurement": "residual activity", "setting": "[21]", "result": 61, "unit": "%"}, {"measurement": "residual activity", "setting": "[22]", "result": 58, "unit": "%"}, {"measurement": "residual activity", "setting": "[23]", "result": 100, "unit": "%"}, {"measurement": "residual activity", "setting": "[24]", "result": 100, "unit": "%"}, {"measurement": "residual activity", "setting": "[25]", "result": 92, "unit": "%"}, {"measurement": "residual activity", "setting": "[26]", "result": 59, "unit": "%"}, {"measurement": "residual activity", "setting": "[27]", "result": 87, "unit": "%"}, {"measurement": "residual activity", "setting": "[28]", "result": 92, "unit": "%"}, {"measurement": "residual activity", "setting": "[29]", "result": 100, "unit": "%"}, {"measurement": "residual activity", "setting": "[30]", "result": 72, "unit": "%"}, {"measurement": "residual activity", "setting": "[31]", "result": 86, "unit": "%"}, {"measurement": "residual activity", "setting": "[32]", "result": 79, "unit": "%"}, {"measurement": "residual activity", "setting": "[33]", "result": 100, "unit": "%"}, {"measurement": "residual activity", "setting": "[34]", "result": 100, "unit": "%"}, {"measurement": "residual activity", "setting": "[35]", "result": 100, "unit": "%"}, {"measurement": "residual activity", "setting": "[36]", "result": 91, "unit": "%"}, {"measurement": "residual activity", "setting": "[37]", "result": 100, "unit": "%"}, {"measurement": "residual activity", "setting": "[38]", "result": 82, "unit": "%"}, {"measurement": "residual activity", "setting": "[39]", "result": 49, "unit": "%"}, {"measurement": "residual activity", "setting": "[40]", "result": 100, "unit": "%"}, {"measurement": "residual activity", "setting": "[41]", "result": 66, "unit": "%"}, {"measurement": "residual activity", "setting": "[42]", "result": 41, "unit": "%"}, {"measurement": "inhibition", "setting": "[43]", "result": 12, "unit": "%"}, {"measurement": "inhibition", "setting": "[44]", "result": -8.94, "unit": "%"}, {"measurement": "inhibition", "setting": "Rattus norvegicus", "result": 1.57, "unit": "%"}]}
